Conditions in all cases: in supplemented diet
Experiment [1] relates to HDL-cholesterol. Briefly: Test A: In vivo HDL-cholesterol test. Also noted: species or system Male Sprague-Dawley rats. Here is the method: a) Test A: In vivo HDL-cholesterol test: Male Sprague-Dawley rats weighing 200-225 g are housed two per cage and fed Purina Rodent Chow Special Mix 5001-S supplemented with 0.25 % cholic acid and 0.75 % cholesterol by Purina and water ad libitum for seven or eight days. Each test substance is then administered to a group of six rats in the supplemented diet for eight or twenty-one days, the test substance constituing 0.005-0.20 % of the diet. Body weight and food consumption data are recorded prior to diet administration, prior to test substance administration and at termination. Typical doses of the test substance are 4-200 mg/kg/day. At termination, the rats are anesthetized, sacrificed by exsanguination, the blood is collected, kept on ice while clotting, centrifuged, and the serum is separated. […] Remaining sera aliquots are refrigerated and frozen for storage. HDL is isolated by micro-ultracentrifugation (mUC) or fast protein liquid chromatography (FPLC) techniques. The mUC method is as follows: 175 µl of the 1.06 g/ml density-adjusted blood serum is centrifuged at 42000 rpm in a Beckmann 42.2 Ti rotor at 20°C for 2.5 hours. 95 µl is fractionated from the top, leaving 80 µl in the bottom. FPLC fractionation is performed by Superose^R 6 (highly cross-linked beaded agarose having a dry bead diameter of 20-40 µm) gel permeation chromatography using the method of Kieft et al., J.Lipid Res. 32 (1991) 859-866 modified by the technique described in France et al., Laboratory Robotics and Automation 2 (1990) 155-173. The column buffer is Tris buffered saline solution [i.e. 0.05 M Tris (2-amino-2-hydroxymethyl-1,3-propanediol) and 0.15 M sodium chloride in distilled deionized water (ddH₂O)] containing 0.01 % sodium azide. 200 µl of serum is injected and forty 0.5 ml fractions are collected. Cholesterol is assayed on total, 42.2 Ti rotor bottoms and FPLC fractions using the Sigma Diagnostics kit for the enzymatic determination of cholesterol, Procedure No. 352, modified for use with ninety-six well microtiter plates. The reconstituted reagent (after addition of water) contains 300 U/l cholesterol oxidase, 100 U/l cholesterol esterase, 1000 U/l peroxidase (horseradish), 0.3 mmoles/l 4-aminoantipyrine and 30.0 mmoles/l p-hydroxybenzenesulfonate in a pH 6.5 buffer. This method uses cholesterol esterase to hydrolyze cholesterol esters to free cholesterol. Free cholesterol is oxidized to produce hydrogen peroxide that is used to form a quinoneimine dye. Since the reaction takes place quantitatively, the concentration of the dye, measured colorimetrically, is directly proportional to the cholesterol content of the sample. Calibrator, standard and sample may be diluted with saline if cholesterol concentrations cause readings outside the linear range. 20 µl of calibrator, standard or test sample is mixed with a 200 µl aliquot of reagent in a ninety-six well microtiter plate. Each mixture is incubated at 20°-25° for 25 minutes, and absorbance is determined by a colorimetric microtiter plate reader at 490, 492 or 500 nm. Top cholesterol (i.e. LDL-cholesterol) is determined by subtraction. Quality of micro-ultracentrifugation separation is determined by Corning universal agarose gel electrophoresis with Fat Red 7B stain. FPLC fraction Apo A-I content is assessed by the non-reducing SDS-PAGE method of France et al., J. Lipid Res. 30 (1989) 1997-2004. HDL-cholesterol is quantitated by assessing the cholesterol content of fractions containing Apo A-I and lacking immunoreactive Apo B protein. Other conventional methods may be used to assay the blood serum samples for HDL-cholesterol and total triglyceride content.

Experiment [2] has as its system Total triglycerides. As to the kind of experiment: Total triglycerides in blood serum of the rats of Test A. The experiment is classed as in vivo, Male Sprague-Dawley rats. Here is the method: Male Sprague-Dawley rats weighing 200-225 g are housed two per cage and fed Purina Rodent Chow Special Mix 5001-S supplemented with 0.25 % cholic acid and 0.75 % cholesterol by Purina and water ad libitum for seven or eight days. Each test substance is then administered to a group of six rats in the supplemented diet for eight or twenty-one days, the test substance constituing 0.005-0.20 % of the diet. Body weight and food consumption data are recorded prior to diet administration, prior to test substance administration and at termination. Typical doses of the test substance are 4-200 mg/kg/day.
At termination, the rats are anesthetized, sacrificed by exsanguination, the blood is collected, kept on ice while clotting, centrifuged, and the serum is separated. […] Remaining sera aliquots are refrigerated and frozen for storage.
Total triglycerides are assayed on blood serum using the Boehringer Mannheim Diagnostics Reagentset^R Triglycerides-GB kit (Cat. No. 877557) modified for microtiter plate assays as follows: The reagents are prepared according to the described method. 100 µl of Working Solution 1 and 20 µl of dilute blood serum [1:1 blood serum:saline (saline is 0.15 M sodium chloride in ddH₂O)] are added to each well of a ninety-six well microtiter plate, mixed and incubated at 20°-25° for at least 5 minutes. 100 µl of working solution 2 is added to each well, and the contents are mixed and incubated at 20°-25° for at least 5 minutes and read at 490, 492 or 500 nm. The total triglyceride content in mg/dl of blood serum is calculated by comparing the absorbance with the absorbance of known samples.
Other conventional methods may be used to assay the blood serum samples for HDL-cholesterol and total triglyceride content.

The subject of experiment [3] is Apo A-I. Briefly: Test B: Apo A-I test (rat Apo A-I ELISA on blood serum of the test animals of Test A). Format: in vivo. On the procedure: The Apo A-I blood serum level of the test animals of Test A is determined by rat Apo A-I Enzyme-Linked Immunosorbent Assay (ELISA) as follows:
1. Production and purification of rabbit anti-rat Apo A-I antibody:
Rat Apo A-I is purified from pooled rat blood serum by sequential ultracentrifugation and isolation of rat high-density lipoproteins (HDL). Following delipidation, Apo A-I is resolved from other HDL proteins by gel filtration chromatography. Antisera are raised in three rabbits (Pocono Rabbit Farms, Candensis, PA) by serial subcutaneous injections of purified rat Apo A-I by conventional immunization protocols. After one year of repeated bleedings, antisera are pooled, aliquoted and frozen at -20°. The crude antisera are defrosted, applied to a cyanogen bromide-activated Sepharose^R Cl-4B (beaded agarose having a 60-140 µm dry bead diameter) column to which purified human HDL had been covalently linked, the column is washed with saline, and the purified antibody is eluted with 1 M pH 3 glycine solution. The glycine is removed by dialysis utilizing Tris Buffered Saline Solution to obtain a concentrated solution of purified rabbit anti-rat Apo A-I antibody.
2. Buffers, reagents and standards:
• Sodium carbonate adsorption buffer: 2.25 g of sodium carbonate, 4.40 g of sodium bicarbonate and 0.15 g of sodium azide are dissolved in 1.4 l of ddH₂O, the pH is adjusted to 9.6 with sodium hydroxide, and the buffer is diluted with ddH₂O to a total volume of 1.5 l; • pH 8 0.5 M Tris: a solution of 60.55 g of Tris·HCl (2-amino-2-hydroxymethyl-1,3-propanediol·hydrochloride) in 1.0 l of ddH₂O is adjusted to pH 8.0 with 10 N sodium hydroxide solution; • secondary antibody buffer: 200 ml of pH 8 0.5 M Tris is added to a solution of 40 g of bovine serum albumin (BSA) Cohn Fraction V in 1.8 l of ddH₂O, 0.2 g of sodium azide is added, and 18.0 g of sodium chloride is added; • substrate buffer: 0.1 g of sodium azide is added with stirring to 105.1 g of diethanolamine and 500 ml of ddH₂O, 10 ml of 0.5 M magnesium chloride·hexahydrate solution is added, the pH is adjusted to 9.8 with 12 N hydrochloric acid, and the solution is diluted to a total volume of 1 l with ddH₂O; • 30 x ELISA wash buffer: 525.96 g of sodium chloride, 76.68 g of Tris, 6 g of sodium azide and 30 ml of Tween^R20 [polyoxyethylene (20) sorbitan monolaurate] are combined, the pH is adjusted to 7.3 with 12 N hydrochloric acid, and the solution is diluted to a total volume of 2 l with ddH₂O; • 1 x ELISA wash buffer: 1 volume of 30 x ELISA wash buffer is diluted with 29 volumes of ddH₂O; • sample diluent buffer: 886.34 ml of secondary antibody buffer and 113.66 ml of Tween^R20 are mixed well to obtain an 11.366 % v/v Tween^R20 solution; • standard diluent buffers: (A) 780 mi of secondary antibody buffer and 220 ml of Tween^R20 are mixed well to obtain a 22 % v/v Tween^R20 solution. (B) 890 ml of secondary antibody buffer and 110 ml of Tween^R20 are mixed well to obtain an 11 % v/v Tween^R20 solution; • rat serum pool A: this source of rat blood serum is used to construct the standard curve for each assay. It is calibrated against purified Apo A-I and contains 45 ± 2.7 mg Apo A-I/dl blood serum; • rat serum pool B: this is used as a low internal standard in each assay for monitoring assay drift and contains 40 mg Apo A-I/dl blood serum; • rat serum pool C: this is derived from rats treated with reference compound (gemfibrozil), is used as a high internal standard for monitoring assay drift and contains 70 mg Apo A-I/dl blood serum.
Purified rat Apo A-I from a frozen stock containing 942 µg/ml is diluted in sodium carbonate adsorption buffer to a final concentration of 3.7 µg/ml. Into each well of several Nunc polystyrene ninety-six well microtiter plates is added 100 µl of this solution. Apo A-I is allowed to adsorb onto the plates for 48 hours at 4°. […]

Where [4] appears, read: duration of treatment 8 days, dose mg/kg/day: Example 1 60, Example 2 79, Gemfibrozil 50.
The mark [5] stands for this setting: duration of treatment 21 days, dose mg/kg/day: Example 1 65, Example 2 73, Gemfibrozil 44.

Regarding `Cc1ccc(C)c(OCCCC(C)(C)C(=O)O)c1` [Gemfibrozil, reference compound], the “HDL-cholesterol level increase (%)” value in experiment [1] (setting [4]) came out at 100%; in experiment [1] (setting [5]), 106%. Besides, the “Total triglycerides level decrease (%)” value was 35% in experiment [2] (setting [4]) and 43% in experiment [2] (setting [5]). The “Apo-I level increase (%)” value came out at 50% in experiment [3] (setting [4]) and 44% in experiment [3] (setting [5]).
Turning to `CCCNC(=S)Nc1cc(Cl)ccc1C` [Example 1, N-(5-Chloro-2-methylphenyl)-N'-propylthiourea], the “HDL-cholesterol level increase (%)” value in experiment [1] (setting [4]) is 225%; in experiment [1] (setting [5]), 256%. The “Total triglycerides level decrease (%)” value turned out to be 45% in experiment [2] (setting [4]) and 70% in experiment [2] (setting [5]). Further, the “Apo-I level increase (%)” value in experiment [3] (setting [4]) was found to be 65%; in experiment [3] (setting [5]), 47%.
With `Cc1ccc(Cl)cc1NC(=S)NCC(C)C` [Example 2, N-(5-Chloro-2-methylphenyl)-N'-2-methylpropylthiourea], the “HDL-cholesterol level increase (%)” value in experiment [1] (setting [4]) is recorded as 267%; in experiment [1] (setting [5]), 323%. Also, the “Total triglycerides level decrease (%)” value in experiment [2] (setting [4]) is listed as 49%; in experiment [2] (setting [5]), 44%. The “Apo-I level increase (%)” value in experiment [3] (setting [4]) was determined as 69%; in experiment [3] (setting [5]), 102%.

(Values after EP0528146A1, “N-phenylthiourea derivatives and pharmaceutical use thereof” (SANDOZ LTD., priority 1991, dated 1993).)
